Source: patent US12673915B2, “Precursor compound of hexahydro-beta-acid component compound, feed composition and use thereof” (WISORIG TECHNOLOGIES PTE. LIMITED, priority 2020, dated 2026)

How the values were obtained:
yellow broilers = test: Effect on the production performance of broilers (30-day feeding trial); format: in vivo; settings: for ADFI (average daily feed intake) / ADG (average daily weight gain) / FCR (feed conversion ratio): 30 days, broilers; for effects on the production performance of broilers compared with hexahydro-colupulone (in words): in vivo
Excerpt: Single-factor was used to conduct the trial. 540 1-day-old yellow broilers with a similar average body weight of 50 g were randomly divided into 6 groups, with 6 replicates per group, equal amount of males and females and 15 yellow broilers per replicate. The chicken house and tools were sterilized before the trial. During the trial, the broilers were kept in separate regions in the same chicken house under the same feeding and management conditions. During the trial, each test group was fed with basal formula feed consisting of corn and soybean and not fed with other antioxidants or growth enhancers. The groups were known as control group (group 1) and test groups 2 to 6, wherein the control group was fed with basal formula feed only, while the test groups 2 to 6 were fed with basal formula feeds respectively mixed with hexahydro-colupulone, hexahydro-colupulone mono-acetate, or hexahydro-colupulone mono-butyrate, as shown in Table 5.
The trial lasted for 30 days. The broilers were given free hand with feed and water and were fed twice a day. To calculate the average daily feed intake (ADFI, g/d per broiler), the average daily weigh gain (ADG, g/d per broiler) and the feed conversion ratio (FCR), the 31 days old broilers (12 hours without feed but water) of each replication as one unit were weighed, and the amount of the feed consumed thereby was counted. Feed conversion ratio (FCR)=average daily feed intake/average daily weight gain

[1] = Long-term stability in feeds at room temperature (25° C.±2° C., RH 60%±10%; HPLC); format: physicochemical; settings: for stability / content in feeds at room temperature (in words): during the testing period
Excerpt: Feeds: ZUSF's premixed feed (A mixture of crushed Feed A and crushed Feed B at a weight ratio of 2:1, wherein Feed A was a 5.33% multi-premixed feed for piglets from ZUSF's Hao-Ru-Zhen-Jing, and B was a 2.67% multi-premixed feed for piglets from ZUSF's Hao-Ru-Zhen-Jing); creep feed for piglets from CP FEED; INSIGHTER's feed for broiler; 4% premixed feed from GUANGDONG CO-POWER.
Preparation of a sample of 1% premix of Ingredient: 1 g of an ingredient was respectively weighed out and evenly mixed with 99 g of corncob meal in a mixer to give a sample of 1% premix of an ingredient.
Preparation of a sample of 500 ppm feed of an ingredient: The sample of 1% premix of an ingredient was diluted step by step using the ZUSF's remixed feed to 5000 ppm and 500 ppm to give the sample of 500 ppm feed of an ingredient for later testing.
Preparation of a sample of 100 ppm feed of an ingredient: sample of 1% premix of an ingredient was diluted step by step using the creep feed for piglets from CP FEED to 1000 ppm and then 100 ppm to give the sample of 100 ppm feed of an ingredient for later testing.
Preparation of a sample of 100 ppm feed of an ingredient: The sample of 1% premix of an ingredient was diluted step by step using the INSIGHTER's feed for broiler to 1000 ppm and 100 ppm to give the sample of 100 ppm feed of an ingredient for later testing.
Preparation of a sample of 2000 ppm feed of an ingredient: The sample of 1% premix of an ingredient was diluted step by step using the 4% premixed feed from GUANGDONG CO-POWER to 5000 ppm and 2000 ppm to give the sample of 2000 ppm feed of an ingredient for later testing.
Method: Three replications of each feed sample were tested at the condition of 25° C.±2° C. and RH 60%±10%, wherein the replications of each feed sample were sampled in parallel for HPLC analysis on day 5, day 10, day 15, day 30, day 60, and day 90.
25.0 mg of an ingredient was accurately weighed out and dissolved in an appropriate amount of methanol or n-hexane by ultrasonication. The solution was then transferred to a volumetric flask and diluted to 50 mL to give a 500 ppm (by wt.) stock solution. The samples from the stock solution were diluted with methanol or n-hexane respectively to a concentration of 10 ppm, 25 ppm, 50 ppm, 100 ppm, and 250 ppm of work solution, and then the working solutions were filtered by 0.22 μm organic membranes. Between the concentration of a sample and the response value of HPLC peak area thereof, the linearity was adjusted and detected to give a standard curve.
5.0000 g of the samples sampled at different time intervals were respectively accurately weighed out, and dissolved in 25 mL of methanol or n-hexane by ultrasonication for 10 minutes. The resulting solutions were filtered by organic membranes and then analyzed by HPLC.
• Equipment: Waters e2695 with PDA detector. • Mobile phase: 0.02% phosphoric acid:methanol=5:95 (v:v). • Column: Symmetry Cis column (Waters; 250 mm×4.6 mm, 5 μm). • Wavelength: 235 nm. • Temperature of the Column: 25° C. • Injection volume: 10 μL. • Flow rate: 1 mL/min. Normal Phase Chromatography: • Equipment: Shimadzu LC-14C/SPD-15C. • Column: SuperSil NH2 column ([…]; 250 mm×4.6 mm). • Mobile phase: n-hexane:isopropanol=60:40 (v:v). • Wavelength: 235 nm. • Temperature of the Column: 25° C. • Injection volume: 20 μL. • Flow rate: 1 mL/min. 3: Results

[2] = test system: Duroc×Landrace×Yorkshire cross-bred bacon-type piglets; test: Effect on the production performance of hogs (14-day feeding trial); format: in vivo; settings: 14 days, piglets
Excerpt: 480 67-day-old Duroc×Landrace×Yorkshire cross-bred bacon-type piglets with similar body weight, were randomly divided into 16 groups, with 3 replications per group, 10 piglets per replication and equal amounts of males and females. The pig pen and tools were sterilized before the trial. In the trial, the piglets were kept in separate regions in the same pig pen under the same feeding and management conditions, were given a free hand with the feed and the water, and were fed twice a day. The groups were known as control group (group 1) and test groups 2 to 16. The piglets of the control group were fed with basal formula feed only, while those of the test groups 2 to 16 were respectively fed with basal formula feed mixed with different additives, wherein the active ingredient of the additives was a hexahydro-β-acid compound or a prodrug of a hexahydro-β-acid compound provide herein, and the content thereof in the feed was 5 or 25 ppm as shown in Table 4.
The trial lasted for 14 days. During the trial, each test group was not fed with other antioxidants or growth enhancers. On the 14th day, each test group was fed with no feed but water for 12 hours, and the piglets of each replication as one unit were weighed to calculate the average daily feed intake (ADFI, g/d per piglet), the average daily weight gain (ADG, g/d per piglet), and the feed conversion ratio (FCR). Average daily feed intake=(Total weight of provided feed−Weight of residual feed)/(Days of the trial×Number of piglets in each replicate) Average daily weight gain=(final average body weight−initial average body weight)/Days of the trial Feed conversion ratio=average daily feed intake/average daily weight gain

[3] = 100 ppm in INSIGHTER's broiler feed, Day 5
[4] = 100 ppm in INSIGHTER's broiler feed, Day 15
[5] = 100 ppm in INSIGHTER's broiler feed, Day 30
[6] = 100 ppm in INSIGHTER's broiler feed, Day 60
[7] = 100 ppm in creep feed for piglets from CP FEED, Day 5
[8] = 100 ppm in creep feed for piglets from CP FEED, Day 15
[9] = 100 ppm in creep feed for piglets from CP FEED, Day 30
[10] = 100 ppm in creep feed for piglets from CP FEED, Day 60
[11] = 100 ppm in creep feed for piglets from CP FEED, Day 90
[12] = 500 ppm in ZUSF's premixed feed, Day 5
[13] = 500 ppm in ZUSF's premixed feed, Day 15
[14] = 500 ppm in ZUSF's premixed feed, Day 30
[15] = 500 ppm in ZUSF's premixed feed, Day 60
[16] = 500 ppm in ZUSF's premixed feed, Day 90

Row | Structure (SMILES) | ADFI (average daily feed intake) (yellow broilers; 2 ppm in feed) | ADG (average daily weight gain) (yellow broilers; 2 ppm in feed) | FCR (feed conversion ratio) (yellow broilers; 2 ppm in feed) | ADFI (average daily feed intake) (yellow broilers; 20 ppm in feed) | ADG (average daily weight gain) (yellow broilers; 20 ppm in feed) | FCR (feed conversion ratio) (yellow broilers; 20 ppm in feed) | effects on the production performance of broilers compared with hexahydro-colupulone (in words) (yellow broilers) | Residual amount of active ingredient [1, 3] | Residual amount of active ingredient [1, 4] | Residual amount of active ingredient [1, 5] | Residual amount of active ingredient [1, 6] | Residual amount of active ingredient [1, 7] | Residual amount of active ingredient [1, 8] | Residual amount of active ingredient [1, 9] | Residual amount of active ingredient [1, 10] | Residual amount of active ingredient [1, 11] | Residual amount of active ingredient [1, 12] | ADFI (average daily feed intake) ([2]; 25 ppm in feed) | ADG (average daily weight gain) ([2]; 25 ppm in feed) | FCR (feed conversion ratio) ([2]; 25 ppm in feed) | further results
1 | CC(=O)OC1=C(CCC(C)C)C(=O)C(CCC(C)C)(CCC(C)C)C(O)=C1C(=O)C(C)C [hexahydro-colupulone mono-acetate, Hexahydro-Colupulone Mono-Acetate] | 49.13 g/d per broiler | 25.67 g/d per broiler | 2.02 | 50.06 g/d per broiler | 27.36 g/d per broiler | 1.95 | equivalent | 94.93% | 81.77% | 72.30% | 71.97% | 97.69% | 96.27% | 96.22% | 96.16% | 95.08% | 96.65% | 960 g/d per piglet | 435 g/d per piglet | 2.208 | Residual amount of active ingredient [1, 13]: 96.65%; Residual amount of active ingredient [1, 14]: 96.84%; Residual amount of active ingredient [1, 15]: 95.23%; Residual amount of active ingredient [1, 16]: 85.29%; stability / content in feeds at room temperature (in words) [1]: relatively poor in some of the feeds; ADFI (average daily feed intake) ([2]; 5 ppm in feed): 860 g/d per piglet; ADG (average daily weight gain) ([2]; 5 ppm in feed): 368 g/d per piglet; FCR (feed conversion ratio) ([2]; 5 ppm in feed): 2.340
2 | CCCC(=O)OC1=C(CCC(C)C)C(=O)C(CCC(C)C)(CCC(C)C)C(O)=C1C(=O)C(C)C [hexahydro-colupulone mono-butyrate] | 48.32 g/d per broiler | 24.65 g/d per broiler | 1.96 | 49.95 g/d per broiler | 25.88 g/d per broiler | 1.93 | equivalent | 99.00% | 98.79% | 98.39% | 98.11% | 98.19% | 96.62% | 95.70% | 95.47% | 95.77% | 100.31% | 973 g/d per piglet | 441 g/d per piglet | 2.205 | Residual amount of active ingredient [1, 13]: 98.23%; Residual amount of active ingredient [1, 14]: 96.01%; Residual amount of active ingredient [1, 15]: 96.13%; Residual amount of active ingredient [1, 16]: 95.29%; Residual amount of active ingredient ([1]; 2000 ppm in 4% premixed feed from GUANGDONG CO-POWER, Day 5): 98.62%; Residual amount of active ingredient ([1]; 2000 ppm in 4% premixed feed from GUANGDONG CO-POWER, Day 15): 95.56%; Residual amount of active ingredient ([1]; 2000 ppm in 4% premixed feed from GUANGDONG CO-POWER, Day 30): 95.48%; Residual amount of active ingredient ([1]; 2000 ppm in 4% premixed feed from GUANGDONG CO-POWER, Day 60): 96.34%; Residual amount of active ingredient ([1]; 2000 ppm in 4% premixed feed from GUANGDONG CO-POWER, Day 90): 95.41%; ADFI (average daily feed intake) ([2]; 5 ppm in feed): 991 g/d per piglet; ADG (average daily weight gain) ([2]; 5 ppm in feed): 447 g/d per piglet; FCR (feed conversion ratio) ([2]; 5 ppm in feed): 2.217
3 | CC(C)CCC1=C(O)C(C(=O)C(C)C)=C(O)C(CCC(C)C)(CCC(C)C)C1=O [hexahydro-colupulone, reference compound] |  |  |  | 49.68 g/d per broiler | 25.19 g/d per broiler | 1.97 |  |  |  |  |  | 98.28% | 96.93% | 93.07% | 77.54% | 68.28% |  | 894 g/d per piglet | 403 g/d per piglet | 2.218 | stability / content in feeds at room temperature (in words) [1]: decreased substantially
